One data set concerns B. subtilis 168. As to the kind of experiment: Antibacterial assay (MIC). The data set is classed as cell-based. The note with it: Bacillus subtilis. The method, then:
(§1) The minimal inhibitory concentration (MIC) was determined as described previously in cation-adjusted Mueller-Hinton medium according to the standards and guidelines of the Clinical and Laboratory Standards Institute. […] After an overnight incubation at 37 °C, the MIC was read as the lowest compound concentration preventing visible bacterial growth. The strain panel included representative species of nosocomial pathogens, known as “[…]” bacteria. Specifically, the following strains were used: Enterococcus faecium BM 4147-1, Staphylococcus aureus ATCC 29213, Klebsiella pneumoniae ATCC 12657, Acinetobacter baumannii 09987, Pseudomonas aeruginosa ATCC 27853, and Enterobacter aerogenes ATCC 13048. Bacillus subtilis 168, Escherichia coli ATCC 25922, and Mycobacterium smegmatis mc^2 155 ATCC 700084 were used as further reference strains.

The subject of a further data set is A. baumannii 09987. Nature of the data set: Antibacterial assay (MIC). Conditions: Acinetobacter baumannii. The data set is classed as cell-based. As to the method: as §1
A further data set relates to S. aureus ATCC29213. Nature of the data set: Antibacterial assay (MIC). The note with it: Staphylococcus aureus. The data set is classed as cell-based. The method, then:
as §1

A further data set relates to E. coli ATCC25922. Nature of the data set: Antibacterial assay (MIC). Type of data set: cell-based. Conditions: Escherichia coli. The method, then:
as §1

In the next data set the test system is K. pneumoniae ATCC12657. As to the kind of experiment: Antibacterial assay (MIC). The note with it: Klebsiella pneumoniae. The data set is classed as cell-based. As to the method: as §1
The test system of another data set is E. faecium BM4147-1. Nature of the data set: Antibacterial assay (MIC). Conditions: Enterococcus faecium, BM41471. The data set is classed as cell-based. As to the method: as §1
The test system of a further data set is P. aeruginosa ATCC27853. As to the kind of experiment: Antibacterial assay (MIC). The note with it: Pseudomonas aeruginosa. The data set is classed as cell-based. As to the method:
as §1

Data set [1] deals with Human Cytomegalovirus (HCMV). Type of data set: cell-based. The note with it: up to the highest concentration tested (10 µM), HFF cells.
Data set [2] in a line: Observed stability of the isolated compounds. The note with it: rapid decomposition after the NMR measurements. Type of data set: physicochemical. From the text: The shift values of the terminal heterocycle were in very good agreement with literature data from similar natural products, bearing a γ-hydroxy-γ-butenolide moiety. Analogous to compound 7, the Δ^8,10 double bond of 8 was defined as E (C-9: δC 16.2 and NOESY cross correlations depicted in Figure 4). Likewise, based on the same observed diagnostic NOE crosspeaks for the indene system (Figure S43B) and for biogenetic reasons, we propose that 8 is 11R*, 15R*, 18S*, 20R*, 21S* configured. […] Therefore, we integrated computational methods and aimed for quantum-mechanical predictions of ^1H and ^13C NMR chemical shifts of a 1S- and a 1R-configured version of 8.
All tests were performed with 1 as a pre-screening for the scaffold’s activity within their respective assays. Based on the results from the pre-screening, the biological evaluation of the structural congeners was planned. Unfortunately, an instability phenomenon affected the purity of the isolated compounds. Due to the limited amounts of the isolated compounds, repurification would not have yielded the required sample quantity for the assays. This reality precluded biological evaluation of the structural congeners 3–8.

In a further data set the test system is E. aerogenes ATCC13048. Nature of the data set: Antibacterial assay (MIC). Type of data set: cell-based, Enterobacter aerogenes. Conditions: Klebsiella aerogenes. As to the method: as §1
The subject of data set [3] is Litomosoides sigmodontis adult female worms. Nature of the data set: Anthelmintic assay, motility of adult filariae cultured in vitro. Type of data set: cell-based. Conditions: 0.1, 1 and 10 µM; scale 0 (immotile) to 2 (maximum motility); 2.0 in media controls. As to the method: (§2) To investigate the activity against filarial nematodes, adult female worms of the rodent filarial nematode Litomosoides sigmodontis were cultured in vitro with a 0.1, 1 and 10 µM concentration of 1. Motility of adult filariae as well as reduction of Wolbachia endosymbionts were assessed. […] L. sigmodontis adult female worms were isolated from chronically infected cotton rats (UKB). Three L. sigmodontis female adult worms per condition were cultured in supplemented Minimal Essential Medium (MEM) on a LLCMK2 cell layer, as previously described. […] Candidate 1 was tested at concentrations of 0.1, 1 and 10 µM. Filarial viability was assessed by determining the mean worm motility scores on a scale of 0 (immotile) to 2 (maximum motility) before drug addition and at 1 h, 1 day, 2 day, 4 day, 6 day, 8 day, 10 day, 12 day and 14 day post drug addition. The drug-containing media was renewed every other day. Depletion of Wolbachia endosymbionts from female adult worms was analyzed after two weeks of in vitro culture and determined as previously described using primers for the single copy gene Wolbachia ftsZ.

A further data set relates to M. smegmatis mc2 155. As to the kind of experiment: Antibacterial assay (MIC). Type of data set: cell-based, Mycobacterium smegmatis. Conditions: Mycolicibacterium smegmatis, MC2155. As to the method: as §1
Data set [4] deals with P. falciparum NF54 strain. As to the kind of experiment: In vitro activity against erythrocytic stages of P. falciparum (3H-hypoxanthine incorporation assay). Type of data set: cell-based. The note with it: Plasmodium falciparum, Table 2 values are means of two independent assays. The method, then: Activity against P. falciparum. In vitro activity against erythrocytic stages of P. falciparum was determined using a ^3H-hypoxanthine incorporation assay against the drug-sensitive NF54 strain [76]. Compounds were dissolved in DMSO at 10 mg/mL and further diluted in medium before being added to parasite cultures incubated in RPMI 1640 medium without hypoxanthine, supplemented with HEPES (5.94 g/L), NaHCO3 (2.1 g/L), neomycin (100 U/mL), Albumax^R (5 g/L) and washed human red cells A^+ at 2.5% haematocrit (0.3% parasitaemia). Serial drug dilutions ranged from 100 to 0.002 μg/mL. The 96-well plates were incubated in a humidified atmosphere at 37 °C; 4% CO2, 3% O2, 93% N2. After 48 h 50 μL of ^3H-hypoxanthine (=0.5 μCi) was added to each well of the plate. The plates were incubated for a further 24 h under the same conditions. The plates were then harvested with a Betaplate™ cell harvester (Wallac, Zurich, Switzerland) and the red blood cells were transferred onto a glass fiber filter then washed with distilled water. The dried filters were inserted into a plastic foil with 10 mL of scintillation fluid and counted in a Betaplate™ liquid scintillation counter (Wallac, Zurich, Switzerland). IC50 values were calculated from sigmoidal inhibition curves by linear regression using Microsoft Excel. Chloroquine diphosphate (Sigma C6628) was used as control (IC50 0.006 ± 0.002 μM).

The test system of the next data set is Wolbachia endosymbionts. As to the kind of experiment: Anthelmintic assay, depletion of Wolbachia endosymbionts from cultured adult female worms. Conditions: 0.1, 1 and 10 µM, two weeks of in vitro culture; not statistically significant. Type of data set: cell-based, Litomosoides sigmodontis. The method, then: as §2
Data set [5] relates to L-6 cells (rat skeletal myoblasts). As to the kind of experiment: In vitro cytotoxicity assay with L-6 cells (resazurin). Type of data set: cell-based. Conditions: L6, L-6 cells, read-out: IC50 L6. As to the method: In vitro cytotoxicity assay with L-6 cells. Assays were performed in 96-well microtiter plates, each well containing 100 μL of RPMI 1640 medium supplemented with 1% L-glutamine (200 mM) and 10% fetal bovine serum, and 4000 L-6 cells (a primary cell line derived from rat skeletal myoblasts). Serial drug dilutions ranged from 100 to 0.002 μg/mL. After 70 h of incubation, the plates were inspected under an inverted microscope to assure growth of the controls and sterile conditions. 10 μL of resazurin was then added to each well and the plates were incubated for another 2 h. […] Podophyllotoxin (Sigma P4405) was used as control (IC50 0.011 ± 0.005 μM).

The structures appear in SMILES notation. Where two headings read alike, the source gives them in different places.

For the compound `CC1=C[C@@H](/C=C(\C)CCCc2ccoc2)[C@]2(OC(=O)C(C)=C2O)[C@@H]2[C@@H](C)CC[C@@H]12` [compound 1, Ircinianin], the MIC against B. subtilis 168, against A. baumannii 09987, with S. aureus ATCC29213, with E. coli ATCC25922, against K. pneumoniae ATCC12657 and against E. faecium BM4147-1 was over 32 µg/mL in each case. The minimum inhibitory concentration (MIC) in the data set with P. aeruginosa ATCC27853, in the data set with E. aerogenes ATCC13048 and against M. smegmatis mc2 155 was over 32 µg/mL each time. Also, in data set [1], the “Inhibition of HCMV infection” value is given as “no inhibition”. The “Stability of isolated compound” value in [2] is reported as “unstable”. In data set [3], the motility score is given as 1.7–1.8. Besides, the IC50 in data set [4] came to 25.4 µM; in data set [5] (70 h incubation), 150 µM; in [5] (single cell line assays (Table S7)), 59.5 µg/mL. The “Wolbachia reduction in comparison to media controls” value in the data set on Wolbachia endosymbionts is given as under 32%.

For the origin of these results see publication PMC9410537, “Discovery of Ircinianin Lactones B and C—Two New Cyclic Sesterterpenes from the Marine Sponge Ircinia wistarii” (Marine Drugs, 2022).
